Calls of active or inactive are those of the source. The rule behind the calls is not given here.
Columns and labels:
[1] = Solubility of the compound in water; type: physicochemical; conditions: buffer
HT-29 = assay: Cytotoxicity against human HT-29 cells at 25 ug/ml; type: functional, cell-based
PSN1 = assay: Cytotoxicity against human PSN1 cells at 25 ug/ml; type: functional, cell-based
A549 = assay: Cytotoxicity against human A549 cells at 25 ug/ml; type: functional, cell-based
MDA-MB-231 = assay: Cytotoxicity against human MDA-MB-231 cells at 25 ug/ml; type: functional, cell-based

Row | Compound | solubility [1] | other results
1 | O=C(NCCS(=O)(=O)O)c1cc(O)c2c(c1)C(=O)c1c(c(O)c(Br)c(O)c1-c1c(O)cc3c(c1O)C(=O)c1c(OS(=O)(=O)O)cc(C(=O)NCCS(=O)(=O)O)cc1C3=O)C2=O | Soluble | 
2 | O=C(NCCS(=O)(=O)O)c1cc(O)c2c(c1)C(=O)c1cc(O)c(CNCCS(=O)(=O)O)c(O)c1C2=O | Soluble | 
3 | O=C(O)c1cc(O)c2c(c1)C(=O)c1cc(O)c(Br)c(O)c1C2=O | Soluble | 
4 | O=C(NCCS(=O)(=O)O)c1cc(OS(=O)(=O)O)c2c(c1)C(=O)c1cc(O)c(-c3c(O)c(Br)c(O)c4c3C(=O)c3cc(C(=O)NCCS(=O)(=O)O)cc(OS(=O)(=O)O)c3C4=O)c(O)c1C2=O | Soluble | 

The next lines start with results.

Row | solubility [1] | Compound | other results
5 | Soluble | CCCc1cc(O)c2c(c1)C(=O)c1cc(O)c(CNCCS(=O)(=O)O)c(O)c1C2=O | 
6 | Soluble | CCCc1cc(O)c2c(c1)C(=O)c1cc(OS(=O)(=O)O)cc(O)c1C2=O | 
7 | Soluble | O=C(NCCS(=O)(=O)O)c1cc(O)c2c(c1)C(=O)c1cc(O)cc(O)c1C2=O | 
8 | Soluble | O=C(NCCS(=O)(=O)O)c1cc(OS(=O)(=O)O)c2c(c1)C(=O)c1cc(O)c(Br)c(O)c1C2=O | 
9 | Soluble | O=C(NCCS(=O)(=O)O)c1cc(O)c2c(c1)C(=O)c1cc(O)c(Br)c(O)c1C2=O | Activity (HT-29): inactive; Activity (PSN1): inactive; Activity (A549): inactive; Activity (MDA-MB-231): inactive

Reference: ChEMBL document CHEMBL4371091, “Hypalocrinins, Taurine-Conjugated Anthraquinone and Biaryl Pigments from the Deep Sea Crinoid Hypalocrinus naresianus” (J Nat Prod, 2019)
